The subject of this assay is P388 leukemia ip, CD2F1 mice, survival T/C. In words: NCI In Vivo Anticancer Drug Screen. Data for tumor model P388 Leukemia (intraperitoneal) in CD2F1 (CDF1) mice. As to conditions: endpoint: median survival time, higher = longer survival. Put shortly:
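Mice carrying the transplanted tumor received test compound or vehicle. Survival was recorded in each group, and the value is the treated-group measurement divided by that of the vehicle-treated control group.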

Where [1] appears, read: dose: 50.0 mg/kg/injection, schedule: Q01DX009 (ip), vehicle: saline.
[2] abbreviates: dose: 100.0 mg/kg/injection, schedule: Q01DX009 (ip), vehicle: saline.
Where [3] appears, read: dose: 50.0 mg/kg/injection, schedule: Q01DX005 (ip), vehicle: saline with Tween-80.
Where [4] appears, read: dose: 25.0 mg/kg/injection, schedule: Q01DX009 (ip), vehicle: saline with Tween-80.
[5] abbreviates: dose: 25.0 mg/kg/injection, schedule: Q01DX009 (ip), vehicle: saline.
The mark [6] stands for this setting: dose: 50.0 mg/kg/injection, schedule: Q01DX009 (ip), vehicle: saline with Tween-80.
Where [7] appears, read: dose: 100.0 mg/kg/injection, schedule: Q01DX009 (ip), vehicle: saline with Tween-80.
Setting [8] is: dose: 200.0 mg/kg/injection, schedule: Q01DX009 (ip), vehicle: saline with Tween-80.
Setting [9] is: dose: 50.0 mg/kg/injection, schedule: Q01DX005 (ip), vehicle: Klucel (hydroxypropylcellulose) (HPC).
Where [10] appears, read: dose: 100.0 mg/kg/injection, schedule: Q01DX005 (ip), vehicle: Klucel (hydroxypropylcellulose) (HPC).
[11] abbreviates: dose: 200.0 mg/kg/injection, schedule: Q01DX005 (ip), vehicle: Klucel (hydroxypropylcellulose) (HPC).

Several values for one entry are separate records, joined by “and”; a condition that tells them apart may be missing. Equal entries are not always repeated. Toxic doses and inconclusive results are not listed.

For `O=C(O)c1ccc(O)c(O)c1`, the T/C is 104 % of control and 111 % of control under setting [1]; 100 % of control and 103 % of control under setting [2]; 103 % of control and 98 % of control (dose: 200.0 mg/kg/injection, schedule: Q01DX009 (ip), vehicle: saline); 103 % of control and 118 % of control (dose: 400.0 mg/kg/injection, schedule: Q01DX009 (ip), vehicle: saline); 100 % of control (dose: 600.0 mg/kg/injection, schedule: Q01DX009 (ip), vehicle: saline).

`Cc1cc(C)c2c(=O)n(-c3ccc(Br)cc3)c(=S)n(-c3ccc(Br)cc3)c2n1`: the T/C is 99 % of control (dose: 12.5 mg/kg/injection, schedule: Q01DX005 (ip), vehicle: saline with Tween-80); 97 % of control (dose: 25.0 mg/kg/injection, schedule: Q01DX005 (ip), vehicle: saline with Tween-80); 87 % of control and 95 % of control under setting [3].

As for `CC(NC(=O)C(C)Oc1ccc(Cl)cc1Cl)C(=O)O` (stereo unspecified), the T/C is 101 % of control under setting [3]; 99 % of control (dose: 100.0 mg/kg/injection, schedule: Q01DX005 (ip), vehicle: saline with Tween-80); 100 % of control (dose: 200.0 mg/kg/injection, schedule: Q01DX005 (ip), vehicle: saline with Tween-80).

Turning to `N=C(N)SCc1nc(-c2ccc(Cl)cc2)no1`, the T/C runs as follows: (dose: 6.25 mg/kg/injection, schedule: Q01DX009 (ip), vehicle: saline with Tween-80) 109 % of control; (dose: 6.25 mg/kg/injection, schedule: Q01DX009 (ip), vehicle: saline) 98 % of control; (dose: 12.5 mg/kg/injection, schedule: Q01DX009 (ip), vehicle: saline with Tween-80) 106 % of control; (dose: 12.5 mg/kg/injection, schedule: Q01DX009 (ip), vehicle: saline) 104 % of control and 106 % of control; under setting [4], 106 % of control; under setting [5], 108 % of control and 111 % of control. The T/C runs as follows: under setting [6], 113 % of control; under setting [1], 110 % of control and 121 % of control and 123 % of control.

Regarding `C[C@]12CCC(=O)C=C1CC[C@H]1[C@@H]3C[C@@H](O)[C@](O)(C(=O)CO)[C@@]3(C)C[C@H](O)[C@@]12F`, the T/C runs as follows: under setting [5], 109 % of control; under setting [1], 109 % of control; under setting [2], 109 % of control.

For the compound `O=[N+]([O-])c1ccc(C(O)C(Br)[N+](=O)[O-])cc1` (stereo unspecified), the T/C is 104 % of control under setting [7]; 104 % of control under setting [8]; 95 % of control (dose: 400.0 mg/kg/injection, schedule: Q01DX009 (ip), vehicle: saline with Tween-80).

For `COc1ccc(OC)c(NC(=O)Oc2ccc(C#N)cc2)c1`, the T/C runs as follows: (dose: 60.0 mg/kg/injection, schedule: Q01DX005 (ip), vehicle: saline with Tween-80) 119 % of control; (dose: 120.0 mg/kg/injection, schedule: Q01DX005 (ip), vehicle: saline with Tween-80) 107 % of control; (dose: 240.0 mg/kg/injection, schedule: Q01DX005 (ip), vehicle: saline with Tween-80) 111 % of control.

Consider `COc1cc(C/C(=C\c2cc(OC)c(OC)c(OC)c2)[N+](=O)[O-])ccc1OCc1ccccc1`, for which the T/C by setting is: (dose: 50.0 mg/kg/injection, schedule: Q01DX001 (ip), vehicle: Klucel (hydroxypropylcellulose) (HPC)) 93 % of control; (dose: 100.0 mg/kg/injection, schedule: Q01DX001 (ip), vehicle: Klucel (hydroxypropylcellulose) (HPC)) 94 % of control.

Take `Cc1cc(=O)oc2nc(-c3ccccc3)[nH]c(=O)c12`: the T/C is, setting by setting: (dose: 60.0 mg/kg/injection, schedule: Q01DX005 (ip), vehicle: Klucel (hydroxypropylcellulose) (HPC)) 86 % of control; (dose: 120.0 mg/kg/injection, schedule: Q01DX005 (ip), vehicle: Klucel (hydroxypropylcellulose) (HPC)) 100 % of control; (dose: 240.0 mg/kg/injection, schedule: Q01DX005 (ip), vehicle: Klucel (hydroxypropylcellulose) (HPC)) 91 % of control.

For `CCOc1c(N=Nc2cccc(Cl)c2)c(C)nn1C(=S)S`, the T/C runs as follows: (dose: 15.0 mg/kg/injection, schedule: Q01DX005 (ip), vehicle: Klucel + Tween-80) 94 % of control; (dose: 30.0 mg/kg/injection, schedule: Q01DX005 (ip), vehicle: Klucel + Tween-80) 90 % of control.

Consider `O=C1C2C3CCC(O3)C2C(=O)N1CO` (stereo unspecified), for which the T/C is 112 % of control (dose: 60.0 mg/kg/injection, schedule: Q01DX005 (ip), vehicle: saline) and 124 % of control (dose: 120.0 mg/kg/injection, schedule: Q01DX005 (ip), vehicle: saline).

Turning to `CSc1ccccc1N1C(=O)CSC1=S`, the T/C (dose: 50.0 mg/kg/injection, schedule: Q01DX009 (ip), vehicle: Klucel (hydroxypropylcellulose) (HPC)) is 108 % of control; the T/C (dose: 100.0 mg/kg/injection, schedule: Q01DX009 (ip), vehicle: Klucel (hydroxypropylcellulose) (HPC)) is 96 % of control; the T/C (dose: 200.0 mg/kg/injection, schedule: Q01DX009 (ip), vehicle: Klucel (hydroxypropylcellulose) (HPC)) was 89 % of control.

For the compound `C=C1CCC2C(c3c(C)c(O)c4c(c31)C(=O)C(C)C4)C2(C)C` (stereo unspecified), the T/C was 110 % of control (dose: 3.0 mg/kg/injection, schedule: Q01DX009 (ip), vehicle: Klucel (hydroxypropylcellulose) (HPC)); 108 % of control (dose: 6.0 mg/kg/injection, schedule: Q01DX009 (ip), vehicle: Klucel (hydroxypropylcellulose) (HPC)); 103 % of control (dose: 12.0 mg/kg/injection, schedule: Q01DX009 (ip), vehicle: Klucel (hydroxypropylcellulose) (HPC)); 108 % of control (dose: 24.0 mg/kg/injection, schedule: Q01DX009 (ip), vehicle: Klucel (hydroxypropylcellulose) (HPC)).

As for `N#Cc1ccccc1N=Nc1ccccc1`, the T/C is 94 % of control (dose: 50.0 mg/kg/injection, schedule: Q01DX009 (ip), vehicle: saline + alcohol); 95 % of control (dose: 100.0 mg/kg/injection, schedule: Q01DX009 (ip), vehicle: saline + alcohol); 97 % of control (dose: 200.0 mg/kg/injection, schedule: Q01DX009 (ip), vehicle: saline + alcohol).

With `O=C1C2C3C=CC(C2C(=O)N1CN1CCSCC1)C1C2C(=O)N(CN4CCSCC4)C(=O)C2C31` (stereo unspecified), the T/C runs as follows: under setting [4], 99 % of control; under setting [6], 116 % of control and 121 % of control; under setting [7], 165 % of control; under setting [8], 166 % of control and 194 % of control.

Regarding `CN1CCc2sccc2C(c2ccccc2)O1` (stereo unspecified), the T/C by setting is: under setting [9], 112 % of control; under setting [10], 104 % of control; under setting [11], 113 % of control.

Consider `CCOC(=O)c1cc([N+](=O)[O-])c(SSc2sc(C(=O)OCC)cc2[N+](=O)[O-])s1`, for which the T/C is, setting by setting: (dose: 100.0 mg/kg/injection, schedule: Q04DX003 (ip), vehicle: saline with Tween-80) 104 % of control; (dose: 200.0 mg/kg/injection, schedule: Q04DX003 (ip), vehicle: saline with Tween-80) 96 % of control; (dose: 400.0 mg/kg/injection, schedule: Q04DX003 (ip), vehicle: saline with Tween-80) 95 % of control.

As for `OC1CC(OCc2ccccc2)CC1O` (stereo unspecified), the T/C by setting is: under setting [6], 103 % of control; under setting [7], 97 % of control; under setting [8], 103 % of control.

`CC(=NC(C)C)Nc1ccc(Cl)cc1`: the T/C was 107 % of control under setting [4], 105 % of control under setting [6] and 92 % of control under setting [7].

Consider `CC1CN1P(=O)(OCCC#N)N1CC1C` (stereo unspecified), for which the T/C is, setting by setting: (dose: 25.0 mg/kg/injection, schedule: Q01DX009 (ip), vehicle: other) 104 % of control; (dose: 44.0 mg/kg/injection, schedule: Q04DX003 (ip), vehicle: other) 118 % of control; (dose: 50.0 mg/kg/injection, schedule: Q01DX009 (ip), vehicle: other) 110 % of control; (dose: 66.0 mg/kg/injection, schedule: Q04DX003 (ip), vehicle: other) 118 % of control; (dose: 100.0 mg/kg/injection, schedule: Q01DX009 (ip), vehicle: other) 165 % of control and 177 % of control; (dose: 150.0 mg/kg/injection, schedule: Q04DX003 (ip), vehicle: other) 163 % of control.

Consider `CCOC(=O)C(CC)c1ccncc1C` (stereo unspecified), for which the T/C is, setting by setting: (dose: 25.0 mg/kg/injection, schedule: Q04DX002 (ip), vehicle: saline with Tween-80) 106 % of control; (dose: 50.0 mg/kg/injection, schedule: Q04DX002 (ip), vehicle: saline with Tween-80) 114 % of control; (dose: 100.0 mg/kg/injection, schedule: Q04DX002 (ip), vehicle: saline with Tween-80) 118 % of control; (dose: 200.0 mg/kg/injection, schedule: Q04DX002 (ip), vehicle: saline with Tween-80) 110 % of control.

In the case of `Cn1c(NCCN2CCCCC2)c(C(=O)/C=C/c2ccccc2)c(=O)n(C)c1=O`, the T/C under setting [9] was 104 % of control, the T/C under setting [10] is 107 % of control and the T/C under setting [11] was 103 % of control.

The values are drawn from PubChem BioAssay AID330 (DTP/NCI, 2004).
